Results taken from US20090202573A1, “POLYMERIC CONJUGATES CONTAINING POSITIVELY-CHARGED MOIETIES” (ENZON PHARMACEUTICALS, INC., priority 2006, published 2009).
d = 2'-deoxy (DNA); r = 2'-OH (RNA)

Columns and labels:
Survivin mRNA [1] = assay: Survivin mRNA downregulation in DU145 cell model (prostate cancer) (Example 68); assay type: cell-based; conditions: Example 68: DU145 cells, FIG. 19
From the text: DU145 cells were transfected with the same compounds used in Example 67.

Survivin mRNA [2] = assay: Survivin mRNA downregulation in A549 cell model, RT-PCR (Examples 67, 69, 70, 71, 71 bis); assay type: cell-based, human
Procedure: This study was conducted to determine the effects of the positively charged polymers on Survivin mRNA expression. A549 human lung cells were transfected with each of compounds 33b-I-R4, 33b-I-R5 and 33a-I-R3 in concentrations of 1000 nM, 200 nM, 40 nM, 8 nM and 1.6 nM. […] Compound 33a-I-R3 ([RGD-TATC-S—S]7-^20K8arm PEG-SS-antisense Survivin LNA) includes the TAT peptide and antisense Survivin LNA. The Survivin mRNA expression in the A549 cells treated with each of the compounds was measured by RT-PCR one day after the treatment.
A549 human lung cancer cells were transfected with each of compound 33a-I-R2 and the naive antisense Survivin LNA. Compound 33a-I-R2 ([(Arg)9C—S—S]7-^20K8arm PEG-S—S-antisense Survivin LNA) includes seven polymer arm terminals connected to C(Arg)9 and one arm terminal connected to the antisense Survivin LNA via the intracellular releasable disulfide bond. The naive oligonucleotides (antisense Survivin LNA) were also transfected with the transfection agent lipofectamine.
A549 cells were transfected with each of compound 59 and the antisense Survivin LNA dimer. The dimer of the antisense Survivin LNA modified with a C6—SH tail (antisense Survivin LNA-C6—S—S—C6-antisense Survivin LNA) was also transfected with the transfection agent. Compound 59 contains a hydrazone-based releasable linker.
This study was conducted to determine whether the positively charged polymers containing a targeting agent is as effective as the positively charged polymers without a targeting agent and thus the polymers containing the targeting agent can be utilized for targeted delivery. A549 cells were transfected with each of compounds 33a-I-R1 (TATC-S—S)7-^20K8arm PEG-S—S-antisense Survivin LNA) and 33a-I-R3 ([RGD-TATC-S—S]7-^20K8arm PEG-S—S-antisense Survivin LNA). In compounds 33a-I-R1 and 33a-I-R3, seven polymer arm terminals are connected to C-TAT and C-TAT-RGD, respectively. The cells were also transfected with the antisense Survivin LNA modified with a SH—C6 tail with or without the transfection agent. […] This feature of the positively charged polymers is beneficial to target agent directed delivery of oligonucleotide therapeutics.
A549 human lung cancer cells were transfected with each of compound 33a-I-R1 (TATC-S—S)7-^20K8arm PEG-S—S-antisense Survivin LNA), compound 33a-II-R1 (TATC-S—S)7-^20K8arm PEG-S—S-scrambled Survivin LNA) and the native antisense Survivin LNA. Compound […] corresponds to compound […] except in that it includes mismatching nucleotides within the antisense Survivin LNA (scrambled Survivin LNA: 5′-s^mCsGs^mCsAsgsaststsasgsasasAs^mCs^mCst-3′). The naive antisense Survivin LNA was also transfected with the transfection agent.

BCL2 mRNA = BCL2 mRNA downregulation, RT-PCR, A431 cells (Example 66); assay type: cell-based, human; conditions: without transfection agent, FIG. 17
Procedure: This study was conducted to determine whether the oligonucleotides uptaken by cancer cells downregulate specific gene expression involved in cancer. A431 cells were transfected with native oligonucleotides and compound 23a-I-R1 without transfection agent. The positively charged polymer conjugate contains TAT and BCL2 siRNA.

[3] = Example 71: A549 cells, polymers with or without targeting agent (RGD), FIG. 22

(TATC-S—S)7-^20K8arm PEG-S—S-antisense Survivin LNA [Compound 33a-I-R1]
Survivin mRNA expression (Survivin mRNA [1]): similarly observed | Survivin mRNA expression (Survivin mRNA [2]; [3]): downregulated Survivin mRNA expression | Specific inhibition of Survivin mRNA expression (Survivin mRNA [2]; second Example 71: A549 cells, antisense versus scrambled (mismatching) Survivin LNA, FIG. 23): significantly inhibited Survivin mRNA expression

[(Arg)9C—S—S]7-^20K8arm PEG-S—S-antisense Survivin LNA [Compound 33a-I-R2]
Survivin mRNA expression (Survivin mRNA [2]; Example 69: A549 cells, without the transfection agent, FIG. 20): significantly downregulated Survivin mRNA expression

[RGD-TATC-S—S]7-^20K8arm PEG-SS-antisense Survivin LNA [Compound 33a-I-R3]
Survivin mRNA expression (Survivin mRNA [1]): significant down-regulation of Survivin mRNA expression | Survivin mRNA expression (Survivin mRNA [2]; Example 67: A549 cells, 1000 nM to 1.6 nM, RT-PCR one day after treatment, without transfection agent, FIG. 18): significantly downregulated Survivin mRNA expression | dose dependence of Survivin mRNA downregulation (Survivin mRNA [2]; Example 67: A549 cells, 1000, 200, 40, 8 and 1.6 nM, FIG. 18): dose-dependent | Survivin mRNA expression (Survivin mRNA [2]; [3]): downregulated Survivin mRNA expression

native Bcl2 siRNA: unconjugated antisense Bcl2 siRNA (SEQ ID NOs: 4 and 5) (chain 1 GCAUGCGGCCUCUGUUUGATT; chain 2 UCAAACAGAGGCCGCAUGCTT; sugars from the 5' end r19 d2, backbone not given here)
BCL2 mRNA expression (BCL2 mRNA): downregulated BCL2 mRNA expression dose-dependently
